The values that follow come from publication PMC9791819 (Biochemistry and Biophysics Reports, 2022).

Test [1] addresses T1, BiCMKEngA (Bifidobacterium longum, UniProt A0ACD7UKP5).
T1 sequence (A0ACD7UKP5 1-709): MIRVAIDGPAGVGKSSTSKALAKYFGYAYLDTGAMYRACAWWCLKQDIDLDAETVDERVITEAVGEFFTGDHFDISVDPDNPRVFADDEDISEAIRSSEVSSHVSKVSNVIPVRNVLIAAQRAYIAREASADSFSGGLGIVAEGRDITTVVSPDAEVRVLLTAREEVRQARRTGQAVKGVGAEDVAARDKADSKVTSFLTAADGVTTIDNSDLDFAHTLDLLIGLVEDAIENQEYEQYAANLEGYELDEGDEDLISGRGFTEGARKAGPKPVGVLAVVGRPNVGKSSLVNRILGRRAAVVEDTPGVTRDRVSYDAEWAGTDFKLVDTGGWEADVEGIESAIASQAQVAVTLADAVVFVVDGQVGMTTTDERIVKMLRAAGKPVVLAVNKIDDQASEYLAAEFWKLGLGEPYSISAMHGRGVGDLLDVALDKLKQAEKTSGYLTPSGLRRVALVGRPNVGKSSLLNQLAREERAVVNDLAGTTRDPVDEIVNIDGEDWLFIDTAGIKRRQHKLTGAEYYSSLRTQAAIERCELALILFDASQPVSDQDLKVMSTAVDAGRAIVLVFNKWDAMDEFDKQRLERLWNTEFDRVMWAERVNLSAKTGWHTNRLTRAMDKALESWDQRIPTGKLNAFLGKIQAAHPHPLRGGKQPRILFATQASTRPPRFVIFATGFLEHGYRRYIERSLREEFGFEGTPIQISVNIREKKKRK
Description: isothermal titration calorimetry. The test is classed as binding. The following applies: 10 mM Tris pH 8.0, 300 mM NaCl, 50 mM MgCl2, 25 °C; with or without 1 mM CMP. (In general: Isothermal titration calorimetry measures the heat released or taken up as one component is titrated into another.)

For test [2], the target named is T2, BiEngA (Bifidobacterium longum, UniProt A0ACD7UKP5).
T2 sequence (A0ACD7UKP5 222-709 limits assumed): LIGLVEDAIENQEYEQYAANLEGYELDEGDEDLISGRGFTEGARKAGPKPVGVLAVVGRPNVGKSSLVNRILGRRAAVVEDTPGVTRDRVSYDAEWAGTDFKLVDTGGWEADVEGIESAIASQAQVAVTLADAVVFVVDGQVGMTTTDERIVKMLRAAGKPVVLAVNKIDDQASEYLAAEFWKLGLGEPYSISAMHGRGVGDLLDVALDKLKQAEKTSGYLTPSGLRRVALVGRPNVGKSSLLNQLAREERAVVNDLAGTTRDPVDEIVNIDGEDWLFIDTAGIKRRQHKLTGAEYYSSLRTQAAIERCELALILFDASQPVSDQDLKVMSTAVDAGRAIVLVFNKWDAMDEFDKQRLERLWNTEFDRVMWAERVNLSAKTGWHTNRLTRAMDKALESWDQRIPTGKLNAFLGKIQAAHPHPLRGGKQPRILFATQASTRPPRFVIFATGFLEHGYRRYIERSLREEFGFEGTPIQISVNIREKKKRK
Description: isothermal titration calorimetry. The following applies: 10 mM Tris pH 8.0, 300 mM NaCl, 50 mM MgCl2, 25 °C. The test is classed as binding.

On to `Nc1ncnc2c1ncn2[C@@H]1O[C@H](COP(=O)(O)OP(=O)(O)OP(=O)(O)O)[C@@H](O)[C@H]1O` [ATP], for which the KD entry in test [1] is “Relative dissociation constants of the full length and individual domains for ATP and GTP”.
In the case of `Nc1nc2c(ncn2[C@@H]2O[C@H](COP(=O)(O)OP(=O)(O)OP(=O)(O)O)[C@@H](O)[C@H]2O)c(=O)[nH]1` [GTP], the KD entry in test [2] was “the KD values for GTP, as determined from ITC experiments, were of the similar order”.
